The values that follow come from ChEMBL document CHEMBL2021815, “Metabolism of 4-Aminopiperidine Drugs by Cytochrome P450s: Molecular and Quantum Mechanical Insights into Drug Design” (ACS Med Chem Lett, 2011).

Assay type in all cases: ADME, Microsome
For data set [1], the system named is Liver microsomes. Briefly: Clearance in human liver microsomes at 1 uM. A general note: Liver microsomes are a subcellular fraction often used to study metabolism.
Data set [2] deals with T1, CYP2C8 (Homo sapiens, UniProt P10632).
T1 sequence (P10632 whole entry): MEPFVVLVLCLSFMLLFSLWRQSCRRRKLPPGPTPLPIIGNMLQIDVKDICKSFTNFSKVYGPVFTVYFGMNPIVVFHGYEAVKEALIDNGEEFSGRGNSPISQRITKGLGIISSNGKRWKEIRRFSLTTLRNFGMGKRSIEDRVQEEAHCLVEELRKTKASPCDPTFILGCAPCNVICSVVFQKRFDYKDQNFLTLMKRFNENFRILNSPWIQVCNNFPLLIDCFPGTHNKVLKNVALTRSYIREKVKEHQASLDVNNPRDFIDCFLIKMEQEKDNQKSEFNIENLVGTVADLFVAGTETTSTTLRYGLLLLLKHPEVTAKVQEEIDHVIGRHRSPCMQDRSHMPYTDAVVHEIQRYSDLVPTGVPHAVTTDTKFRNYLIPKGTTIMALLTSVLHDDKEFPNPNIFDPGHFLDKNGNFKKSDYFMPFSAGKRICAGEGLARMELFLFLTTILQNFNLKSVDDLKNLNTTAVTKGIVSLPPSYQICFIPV
Briefly: Half life in human liver microsomes assessed as CYP2C8-mediated parent compound depletion at 1 uM.

Data set [3] has as its target CYP2C19 (Homo sapiens, UniProt P33261). Briefly: Half life in human liver microsomes assessed as CYP2C19-mediated parent compound depletion at 1 uM.
Data set [4] addresses T2, CYP2B6 (Homo sapiens, UniProt P20813).
T2 sequence (P20813 whole entry): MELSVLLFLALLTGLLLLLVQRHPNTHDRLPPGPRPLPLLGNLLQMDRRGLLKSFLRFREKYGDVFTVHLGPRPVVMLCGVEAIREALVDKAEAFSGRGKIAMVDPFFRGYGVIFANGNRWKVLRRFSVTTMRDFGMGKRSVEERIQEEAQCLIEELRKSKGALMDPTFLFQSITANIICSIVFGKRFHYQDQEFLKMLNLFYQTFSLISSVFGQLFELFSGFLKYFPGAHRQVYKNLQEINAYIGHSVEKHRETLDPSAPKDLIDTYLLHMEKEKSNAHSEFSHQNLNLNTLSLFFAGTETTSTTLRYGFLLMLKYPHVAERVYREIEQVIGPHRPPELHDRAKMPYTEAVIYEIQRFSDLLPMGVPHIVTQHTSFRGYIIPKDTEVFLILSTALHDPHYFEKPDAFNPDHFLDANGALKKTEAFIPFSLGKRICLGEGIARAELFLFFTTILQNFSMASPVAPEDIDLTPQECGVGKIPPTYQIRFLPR
Kind of data set: Half life in human liver microsomes assessed as CYP2B6-mediated parent compound depletion at 1 uM.

Data set [5] addresses CYP2C9 (Homo sapiens, UniProt P11712). Briefly: Half life in human liver microsomes assessed as CYP2C9-mediated parent compound depletion at 1 uM.
Data set [6] addresses CYP3A4 (Homo sapiens, UniProt P08684). Kind of data set: Half life in human liver microsomes assessed as CYP3A4-mediated parent compound depletion at 1 uM.
The target in data set [7] is T3, CYP1A2 (Homo sapiens, UniProt P05177).
T3 sequence (P05177 whole entry): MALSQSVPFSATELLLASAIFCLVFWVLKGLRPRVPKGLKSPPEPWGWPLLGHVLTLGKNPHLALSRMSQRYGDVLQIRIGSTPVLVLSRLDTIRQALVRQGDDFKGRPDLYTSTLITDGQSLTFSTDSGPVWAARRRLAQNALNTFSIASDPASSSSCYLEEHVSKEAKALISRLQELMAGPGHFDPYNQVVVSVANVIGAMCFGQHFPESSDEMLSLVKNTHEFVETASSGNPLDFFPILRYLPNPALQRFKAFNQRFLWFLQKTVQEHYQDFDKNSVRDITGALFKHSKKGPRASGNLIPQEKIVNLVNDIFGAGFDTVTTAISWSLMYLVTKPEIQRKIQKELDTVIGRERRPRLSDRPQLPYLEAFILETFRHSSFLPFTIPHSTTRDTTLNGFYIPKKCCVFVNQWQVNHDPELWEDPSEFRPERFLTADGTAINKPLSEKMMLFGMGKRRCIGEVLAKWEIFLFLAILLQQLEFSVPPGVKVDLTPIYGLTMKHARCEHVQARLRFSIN
Briefly: Half life in human liver microsomes assessed as CYP1A2-mediated parent compound depletion at 1 uM.

Data set [8] has as its target CYP2D6 (Homo sapiens, UniProt P10635). Kind of data set: Half life in human liver microsomes assessed as CYP2D6-mediated parent compound depletion at 1 uM.

CYP2D6, sequence (P10635 whole entry): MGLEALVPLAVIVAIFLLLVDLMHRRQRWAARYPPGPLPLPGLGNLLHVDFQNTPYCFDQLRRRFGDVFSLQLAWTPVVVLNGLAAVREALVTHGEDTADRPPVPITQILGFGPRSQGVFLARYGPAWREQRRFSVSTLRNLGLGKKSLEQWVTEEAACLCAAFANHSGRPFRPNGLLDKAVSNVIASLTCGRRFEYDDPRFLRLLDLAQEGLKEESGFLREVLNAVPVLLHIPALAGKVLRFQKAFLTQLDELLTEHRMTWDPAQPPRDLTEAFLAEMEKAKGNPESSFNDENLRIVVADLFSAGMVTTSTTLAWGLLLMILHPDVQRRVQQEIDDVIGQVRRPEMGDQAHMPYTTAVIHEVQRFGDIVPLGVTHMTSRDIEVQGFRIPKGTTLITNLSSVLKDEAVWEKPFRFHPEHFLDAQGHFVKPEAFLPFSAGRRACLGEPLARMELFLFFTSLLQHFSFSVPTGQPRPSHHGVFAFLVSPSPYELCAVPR
CYP2C9, sequence (P11712 whole entry): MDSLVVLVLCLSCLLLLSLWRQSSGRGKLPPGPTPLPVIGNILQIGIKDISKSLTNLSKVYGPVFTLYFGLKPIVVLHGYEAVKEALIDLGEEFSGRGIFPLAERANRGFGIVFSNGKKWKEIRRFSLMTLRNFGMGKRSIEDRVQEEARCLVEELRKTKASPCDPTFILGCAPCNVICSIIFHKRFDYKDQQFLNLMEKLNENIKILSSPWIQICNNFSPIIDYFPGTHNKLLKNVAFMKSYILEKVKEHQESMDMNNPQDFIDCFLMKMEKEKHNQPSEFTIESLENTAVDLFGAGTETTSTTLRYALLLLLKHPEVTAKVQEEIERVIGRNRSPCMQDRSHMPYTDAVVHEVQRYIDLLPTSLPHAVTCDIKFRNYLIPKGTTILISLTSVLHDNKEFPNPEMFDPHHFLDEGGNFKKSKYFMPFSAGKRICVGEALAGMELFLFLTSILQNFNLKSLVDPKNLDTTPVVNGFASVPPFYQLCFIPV
CYP3A4, sequence (P08684 whole entry): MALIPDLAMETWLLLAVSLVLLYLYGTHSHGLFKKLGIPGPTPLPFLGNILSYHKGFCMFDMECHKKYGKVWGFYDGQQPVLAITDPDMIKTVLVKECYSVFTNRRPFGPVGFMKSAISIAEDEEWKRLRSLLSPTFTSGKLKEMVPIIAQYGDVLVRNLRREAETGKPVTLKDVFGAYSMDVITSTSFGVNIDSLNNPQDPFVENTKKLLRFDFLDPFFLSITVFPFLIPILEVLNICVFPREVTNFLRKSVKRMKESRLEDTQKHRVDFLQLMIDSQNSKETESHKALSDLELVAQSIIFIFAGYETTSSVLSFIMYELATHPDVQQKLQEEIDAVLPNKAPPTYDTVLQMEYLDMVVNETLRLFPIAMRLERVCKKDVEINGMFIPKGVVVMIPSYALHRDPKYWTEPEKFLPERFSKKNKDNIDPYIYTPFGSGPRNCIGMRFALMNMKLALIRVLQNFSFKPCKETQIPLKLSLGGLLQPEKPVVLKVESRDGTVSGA
CYP2C19, sequence (P33261 whole entry): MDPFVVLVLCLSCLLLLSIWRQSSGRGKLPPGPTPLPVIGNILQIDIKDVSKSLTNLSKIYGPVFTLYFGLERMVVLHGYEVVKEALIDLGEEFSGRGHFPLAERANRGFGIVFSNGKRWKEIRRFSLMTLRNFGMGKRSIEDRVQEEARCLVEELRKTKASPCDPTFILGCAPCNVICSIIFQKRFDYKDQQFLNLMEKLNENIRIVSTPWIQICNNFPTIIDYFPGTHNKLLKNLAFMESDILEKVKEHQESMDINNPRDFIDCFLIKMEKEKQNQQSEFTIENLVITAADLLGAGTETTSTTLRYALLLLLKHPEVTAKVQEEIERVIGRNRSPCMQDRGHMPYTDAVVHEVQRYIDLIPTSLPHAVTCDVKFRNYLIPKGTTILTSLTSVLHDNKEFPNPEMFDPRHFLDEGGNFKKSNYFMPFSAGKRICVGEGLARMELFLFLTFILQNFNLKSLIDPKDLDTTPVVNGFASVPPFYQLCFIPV

As usually defined, the half-life is the time needed for the level to fall by half in the phase considered. Consider `O=C(NC1CCN(CCc2c[nH]c3ccccc23)CC1)c1ccccc1` [INDORAMIN], for which the “Intrinsic clearance in liver microsomes” value in data set [1] came out at 46.4 µL/min/mg. Besides, the half-life at 1 µM in data set [2] was above 1 h; in data set [3], above 1 h; in data set [4], above 1 h; in data set [5] it was above 1 h; in data set [6], 0.267 h; in data set [7], above 1 h. Also, the half-life at 1 µM in data set [8] was below 0.0833 h.

The compound `O=c1[nH]c2ccccc2n1CCCN1CCC(n2c(=O)[nH]c3cc(Cl)ccc32)CC1` [DOMPERIDONE] had a CLH in data set [1] of 108.6 µL/min/mg.

In the case of `CN(c1nc2ccccc2s1)C1CCN(CC(O)COc2ccc(F)cc2)CC1` (stereo unspecified) [SABELUZOLE], the “Intrinsic clearance in liver microsomes” value in data set [1] was 37 µL/min/mg. In addition, the half-life at 1 µM in data set [2] was above 1 h; in data set [3] it was above 1 h; in data set [4], above 1 h; in data set [5], above 1 h; in data set [6], below 0.0833 h; in data set [7], above 1 h. For the same compound, the half-life at 1 µM in data set [8] was 0.025 h.

Take `O=c1[nH]c2ccccc2n1C1CCN(CCCC(c2ccc(F)cc2)c2ccc(F)cc2)CC1` [PIMOZIDE]: the CLH in data set [1] came to 57 µL/min/mg. For the same compound, the half-life at 1 µM in data set [2] is above 1 h; in data set [3], above 1 h; in data set [4], above 1 h; in data set [5], above 1 h; in data set [6], 0.045 h; in data set [7], above 1 h. In addition, the half-life at 1 µM in data set [8] came to 0.0533 h.

With `COc1cc(N)c(Cl)cc1C(=O)NC1CCN(CCCOc2ccc(F)cc2)CC1OC` (stereo unspecified) [CISAPRIDE], the “Intrinsic clearance in liver microsomes” value in data set [1] was determined as 120.7 µL/min/mg. Moreover, the half-life at 1 µM in data set [2], in data set [3], in data set [4], in data set [5], in data set [7] and in data set [8] was above 1 h each time.

`O=C(CCCN1CCC(n2c(O)nc3ccccc32)CC1)c1ccc(F)cc1` [BENPERIDOL] yielded a CLH in data set [1] of 42 µL/min/mg. Besides, the half-life at 1 µM was 0.73 h in data set [2]; above 1 h in data set [3]; above 1 h in data set [4]; above 1 h in data set [5]; 0.055 h in data set [6]; above 1 h in data set [7]. In data set [8], the half-life at 1 µM amounted to 0.173 h.

Regarding `COc1cc(N)c(Cl)cc1C(=O)NC1CCN(Cc2ccccc2)CC1` [CLEBOPRIDE], the “Intrinsic clearance in liver microsomes” value in data set [1] amounted to 50.4 µL/min/mg. Moreover, the half-life at 1 µM in data set [2] is above 1 h; in data set [3], above 1 h; in data set [4] it was above 1 h; in data set [5] it was above 1 h; in data set [6], below 0.0833 h; in data set [7], above 1 h. For the same compound, the half-life at 1 µM in data set [8] is above 1 h.

With `COc1ccc(CCN2CCC(Nc3nc4ccccc4n3Cc3ccc(F)cc3)CC2)cc1` [ASTEMIZOLE], the “Intrinsic clearance in liver microsomes” value in data set [1] is 136 µL/min/mg. Also, the half-life at 1 µM in data set [2] is above 1 h; in data set [3] it was above 1 h; in data set [4], above 1 h; in data set [5], above 1 h; in data set [6] it was 0.025 h; in data set [7] it was above 1 h. Also, in data set [8], the half-life at 1 µM is 0.0667 h.
